Measured values from PubChem BioAssay AID179 (DTP/NCI, 2004).
Calls of active or inactive are those of the source.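 How the source made its calls: active means compounds giving half or more protection of infected cells from virus-caused growth loss, again on retest; inactive means the rest.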 Where a SMILES comes first, the peptide text is derived from it. The star is where a group is joined. Boc = CC(C)(C)OC(=O)*; OBn = c1ccc(CO*)cc1

Test system: CEM cells HIV-1 protection, formazan growth assay
Assay: NCI AIDS Antiviral Assay
Conditions: for IC50: measured here: growth of uninfected CEM cells
Outline: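 CEM (human) cells, HIV-1 infected vs uninfected, 5-point dosing, formazan growth read-out. Retest threshold 50% protection.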

Row | Compound | EC50 [µM] | IC50 [µM] | outcome
1 | O=C(/C=C/c1c(O)ccc2ccccc12)c1ccccc1Cl | > 56.2 | 28.2 | –
2 | O=C(Nc1ccc(S(=O)(=O)Nc2ccc(N=Nc3ccc(S(=O)(=O)Nc4nccs4)cc3)cc2)cc1)C(N1CC1)(N1CC1)N1CC1 | > 200 | 129 | –
3 | O=C1CN(Cc2ccccc2)CC(=O)N2C(c3ccccc3)CCCN12 (stereo not drawn) | – | – | inactive
4 | O=C(O)c1c(CC(Cc2ccc3c(c2)CCC3)C(=O)O)ccc2c1CCC2 (stereo not drawn) | > 200 | 145 | –
5 | COc1cc2c(cc1O)CN1Cc3c(ccc(OC)c3O)C2C1 (stereo not drawn) | > 282 | 251 | –
6 | Cc1cc(N(CCC#N)CCC#N)ccc1/C(N=Nc1ccc(Cl)cc1)=N\NC(=O)c1ccccc1 | > 200 | 21.4 | –
7 | [O-][n+]1cc(SCc2ccccc2)ncc1SCc1ccccc1 | > 200 | > 200 | –
8 | O=[N+]([O-])c1ccccc1S(=O)(=O)c1ccccc1[N+](=O)[O-] | 1.26 | 145 | –
9 | Nc1ncnc2c1ncn2C1OC(COP(=O)(O)CP(=O)(O)O)C(O)C1O (stereo not drawn) | > 200 | > 200 | –
10 | CCOc1ccccc1NC(=O)CC1Sc2ccccc2NC1=O (stereo not drawn) | > 55 | > 55 | –
11 | Cc1ccc(S(=O)(=O)NCCCSCCO)cc1 | > 871 | 5.75 | –
12 | CCCCCCCCCCC(c1cc(Cl)c(O)c(C(=O)O)c1)c1cc(Cl)c(O)c(C(=O)O)c1 | > 1480 | 79.4 | –
13 | CCOC(=O)C[C@@H](C)[C@]1(C(=O)OC)CCCC1=O | > 708 | > 708 | –
14 | CCOc1cc2c(cc1O)/C(=N\O)C[C@@H]1[C@@H]2CC[C@]2(C)[C@@H](O)CC[C@@H]12 | > 200 | 0.0631 | –
15 | CNC/C(Cl)=N/S(=O)(=O)c1ccc(C)cc1 | > 58.9 | 2.75 | –
16 | CC(C)(C)OC(=O)NC(Cc1ccccc1)C(=O)NC(Cc1ccccc1)C(=O)NCC(=O)OCc1ccccc1 (stereo not drawn) (Boc-Phe-Phe-Gly-OBn; configuration not given here) | > 200 | 11.5 | –
17 | O=C(NC12CC3CC(NC(=O)c4ccccc4)(CC(C1)c1ccccc13)C2)c1ccccc1 | > 12 | > 12 | –
18 | N#CC(c1ccc(Cl)cc1)c1cccc(Cl)n1 (stereo not drawn) | > 70.8 | > 70.8 | –
19 | Cc1c(C)c2ccc(OCC(O)COC(C)C)c(C)c2oc1=O (stereo not drawn) | > 200 | 32.4 | –
20 | CC1=C(c2cc(C(=O)Nc3ccc(Cl)cc3)nc(=S)[nH]2)Sc2ccccc2N1 | > 85.1 | > 85.1 | –
21 | CC1(C)C=C(N2CCN(C3=CC(C)(C)NC(C)(C)C3)CC2)CC(C)(C)N1 | > 182 | > 182 | –
22 | O=C1/C(=C/c2ccccc2)CN(C(=O)/C=C/c2ccccc2)C/C1=C\c1ccccc1 | > 100 | 14.5 | –

Row | Compound | EC50 [µM] | IC50 [µM] | outcome
23 | COC(=O)c1csc(-c2nc(CCNC(=O)OC(C)(C)C)sc2Br)n1 | > 79.4 | 31.6 | –
24 | Cc1ccc2c(c1)C(c1cccc3ccccc13)OC2=O (stereo not drawn) | – | – | inactive
25 | CC(C)(C)NC(=O)Nc1ccccn1 | > 200 | > 200 | –
26 | N#CNC1=NC(Cc2ccccc2)C(=O)N1CCc1c[nH]c2ccccc12 (stereo not drawn) | > 200 | 31.6 | –
27 | CCC1(c2ccc3ccccc3c2)Oc2ccccc2-n2cccc2C1=O (stereo not drawn) | 1.17 | 91.2 | –
28 | CCCCCCCCCCCCC/C=C\[C@@H](OC(=O)c1ccccc1)C(CO)N=[N+]=[N-] (stereo partly drawn) | – | – | inactive
29 | COc1ccccc1NC(=O)CC(=O)N1N=C(c2ccccc2)C(N=Nc2ccc(Cl)cc2)C1=O (stereo not drawn) | > 74.1 | 64.6 | –
30 | CC(=O)OC1CCC2(C)C(C1)CC(OC(C)=O)C1C2CC(OC(C)=O)C2(C)C(C(C)CC=C(c3ccccc3)c3ccccc3)CCC12 (stereo not drawn) | > 7.94 | 5.01 | –
31 | O=C1CCC2(c3ccc(F)cc3)Nc3ccc(Cl)cc3N12 (stereo not drawn) | > 61.7 | 45.7 | –
32 | N#CC12C3C4C5C3C1n1c(=O)n(-c3ccccc3)c(=O)n1C5C42 (stereo not drawn) | > 200 | > 200 | –
33 | CCN(CC)CCN1CCN=c2c3cc(OC)ccc3n3cnc4ccc1c2c43 | > 2 | 0.0347 | –
34 | COc1c(C(=O)/C(=N/Nc2ccc(C(=O)O)cc2)C(C)=O)c(O)cc2occc12 | > 200 | 110 | –
35 | O=C(CC(c1ccccc1)c1ccccc1)NCCCCN1CCCCCCC1 | > 200 | 12.9 | –
36 | CC(NNC(=S)N1CCCC1)c1cccnn1 (stereo not drawn) | > 200 | 0.372 | –
37 | c1ccc(C[n+]2ccc3c(c2)CCCC3)cc1 | > 200 | 40.7 | –
38 | O=C1c2ccccc2C(=O)C1C(c1ccc([N+](=O)[O-])cc1)C1C(=O)c2ccccc2C1=O | > 4.47 | > 4.47 | –
39 | Cc1ccccc1N1C(N)=C(C#N)C(C#N)(C#N)C1c1ccccc1 (stereo not drawn) | > 200 | 12 | –
40 | N#Cc1c[nH]c(=O)[nH]c1=O | > 200 | > 200 | –
41 | O=C(CSc1nc2ccccc2c(=O)n1-c1ccccc1)N=Nc1c(O)[nH]c2ccc(Br)cc12 | 61.7 | 85.1 | –
42 | O=C1NC2ON=C(c3ccccc3)C2C2ON=C(c3ccccc3)N12 (stereo not drawn) | > 200 | 37.2 | –
43 | CCOC(=O)Cc1ccc(-c2cn3c(n2)sc2ccccc23)cc1 | > 200 | > 200 | –
44 | O=C(O)[C@@H]1CSCN1C(=O)[C@@H]1CCC(=S)N1 | > 200 | > 200 | –

Row | Compound | EC50 [µM] | IC50 [µM] | outcome
45 | O=C(c1ccccc1)c1ccc(C(c2c(O)c3ccccc3oc2=O)c2c(O)c3ccccc3oc2=O)cc1 | > 200 | 34.7 | –
46 | C[C@H]1[C@H](C)N1CC(O)Cn1ccnc1[N+](=O)[O-] (stereo partly drawn) | > 200 | > 200 | –
47 | COc1ccc(N=NC(=O)NC(CC(C)C)C(N)=O)cc1 (stereo not drawn) | > 200 | 3.39 | –
48 | CN1C(=O)c2ccccc2C2(O)c3ccccc3-c3ccccc3C12O (stereo not drawn) | > 20 | 4.47 | –
49 | O=C1Nc2cccnc2NC2=C1CSC2 | > 200 | > 200 | –
50 | O=C(/C=C/c1ccc2c(c1)OCO2)c1ccc(O)cc1 | > 200 | 29.5 | –
51 | c1ccn2nnnc2c1 | > 2090 | > 2090 | –
52 | O=C1NC(=O)C(=Cc2cccc(Cl)c2)C(=O)N1 | > 145 | > 145 | –
53 | Clc1nc2cc3nc(Cl)c(Cl)nc3cc2nc1Cl | > 50.1 | 33.1 | –
54 | CC1CC[C@]2(C(=O)O)CCC3(COC(=O)/C=C\c4ccc(O)cc4)C(=CCC4[C@@]5(C)CC[C@H](O)C(C)(C)C5CC[C@]43C)[C@@H]2[C@H]1C (stereo partly drawn) | > 41.7 | 11 | –
55 | COc1ccc2c(CN3CCCCC3CO)cc3cc(OC)c(OC)cc3c2c1 (stereo not drawn) | – | – | inactive
56 | Nc1c(N=Nc2ccc(/C=C/c3ccc(N=Nc4cc(S(=O)(=O)O)c5cccc(S(=O)(=O)O)c5c4N)cc3S(=O)(=O)O)c(S(=O)(=O)O)c2)cc(S(=O)(=O)O)c2cccc(S(=O)(=O)O)c12 | 8.71 | 77.6 | –
57 | Cc1cn(C2CC(OC(c3ccccc3)(c3ccccc3)c3ccccc3)C(CO)O2)c(=O)[nH]c1=O (stereo not drawn) | > 200 | 10.5 | –
58 | CCCC/C=C\CCCCCCCCCC1=C(O)C(=O)C=C(OC)C1=O | > 55 | 9.33 | –
59 | COc1ccc(NC(=O)CC(=O)n2nc(-c3ccccc3)c(N=Nc3ccccc3C(=O)O)c2-c2ccccc2)cc1 | > 17.8 | > 17.8 | –
60 | C/C(CC(=O)CCCC(=O)Nc1ccc(Cl)cc1Cl)=N/NC(=O)CC#N | > 18.2 | > 18.2 | –
61 | OC(C#CC(O)(c1ccccc1)c1ccccc1)(c1ccccc1)c1ccccc1 | > 200 | 11 | –
62 | COc1ccc(/C=C(\C#N)c2ccc(Cl)cc2)cc1OC | > 200 | 174 | –
63 | OCCC(Sc1ccccc1)Sc1ccccc1 | – | – | inactive
64 | Cc1ccc(NCC(=O)N2CC(=O)Nc3ccccc32)cc1 | > 123 | > 123 | –
65 | Oc1cc2ccccc2cc1OC(F)(F)c1nc2ccccc2o1 | > 200 | 12.3 | –
66 | OCC1CC2CC1C1(C2)OCCO1 (stereo not drawn) | – | – | inactive

Row | Compound | EC50 [µM] | IC50 [µM] | outcome
67 | COC(=O)C1C(=O)N(C)C(=O)N2CCCC12 (stereo not drawn) | > 200 | > 200 | –
68 | CC1=C(C(=O)CC(=O)C(=O)Nc2cccc(C)c2C)Sc2ccccc2N1 | > 331 | > 331 | –
69 | O=C(N/N=C\c1cccs1)c1ccncc1 | > 200 | > 200 | –
70 | COC(=O)C(NC(=O)c1ccccc1)C(c1c(O)cc(O)cc1O)P(=O)(OC)OC (stereo not drawn) | > 16.2 | > 16.2 | –
71 | COc1ccc(/C=N/N=C(N)N)c(C(=O)O)c1OC | – | – | inactive
72 | Cc1ccc(S(=O)(=O)NNCNC(=O)c2ccccc2)cc1 | – | – | inactive
73 | O=C(Nc1ccc(Cl)c(Cl)c1)C(=O)C(C(=O)c1ccccc1F)C1OC(=O)c2ccccc21 (stereo not drawn) | > 195 | 14.1 | –
74 | CCOP(=O)(OCC)C(F)(F)CC1CCCCC1 | > 200 | 170 | –
75 | C[C@@H](NC(=O)[C@@H]1C[C@]1(C)COC(=O)c1cc([N+](=O)[O-])cc([N+](=O)[O-])c1)c1cccc2ccccc12 | > 200 | 115 | –
76 | CN(C)Cc1cc(C(=O)/C=C/c2ccc(Cl)cc2)cc(CN(C)C)c1O | > 200 | 9.12 | –
77 | N#CC(C#N)=c1ccc(=C2NCC3CCCN23)cc1 (stereo not drawn) | – | – | inactive
78 | CC1=C(C)C2(C#N)C(=O)N3C(=NC(c4ccccc4)NC3c3ccccc3)C2(C#N)C(c2ccccc2)N1 (stereo not drawn) | > 100 | > 100 | –
79 | COc1ccc(-c2cc(-c3ccco3)c(C#N)c(=O)n2C2OC(OC(=O)c3ccccc3)C(OC(=O)c3ccccc3)C2OC(=O)c2ccccc2)cc1 (stereo not drawn) | > 7.24 | > 7.24 | –
80 | CC(C)OP(=O)(OC(C)C)C([CH2][Sn]([CH3])([CH3])[Cl])P(=O)(OC(C)C)OC(C)C | > 457 | 8.32 | –
81 | CC(C(=O)O)c1ccc2c(c1)Cc1ccccc1-2 (stereo not drawn) | > 200 | > 200 | –
82 | Cc1ccc(/C=N/Nc2cnccn2)s1 | > 200 | > 200 | –
83 | O=[N+]([O-])c1ccccc1S(=O)c1ccccc1 (stereo not drawn) | 6.76 | 22.4 | –
84 | [O-]c1csc2n(-c3ccccc3)c3ccccc3[n+]12 | > 200 | > 200 | –
85 | Cc1cc(NCCCCCCCNc2cc(C)nc3cc(N)ccc23)c2ccc(N)cc2n1 | 5.89 | 8.71 | –
86 | Cc1cccc(C)c1NC(=O)C(=O)CC(=O)c1cccc([N+](=O)[O-])c1 | > 525 | > 525 | –
